Assay results from patent US5258398A, “Antithrombotic diaminoalkanoic acid derivatives” (Rhone-Poulenc Rorer Pharmaceuticals Inc., priority 1991, dated 1993).

Test system: fixed activated platelets
Test: Platelet Aggregation Assay (inhibition of fibrinogen-mediated aggregation of fixed-activated platelets)
Assay type: cell-based
Details: human fibrinogen 250 μg/ml, fixed thrombin-activated human platelets
Text: (§1) The effectiveness of compounds of the present invention as inhibitors of thrombus formation and platelet aggregation may be determined by the following pharmacologic tests which evaluate the inhibition of fibrinogen-mediated platelet aggregation and fibrinogen binding to thrombin-stimulated platelets by said compounds.
(§2) The Platelet Aggregation Assay is based on that described in Blood 66 (4), 946-952 (1985). The Fibrinogen-Binding Assay is essentially that of Ruggeri, Z. M., et al., Proc. Natl. Acad. Sci. USA 83, 5708-5712 (1986) and Plow, E. F., et al., Proc. Natl. Acad. Sci., USA 82, 8057-8061 (1985).
Preparation of Fixed-Activated Platelets
Platelets are isolated from human platelet concentrates using the gel-filtration technique as described by Marguerie, G. A., et al., J. Biol. Chem. 254, 5357-5363 (1979) and Ruggeri, Z. M., et al., J. Clin. Invest. 72, 1-12 (1983). The platelets are suspended at a concentration of 2×10^8 cells/ml in a modified calcium-free Tyrode's buffer containing 127 mM sodium chloride, 2 mM magnesium chloride, 0.42 mM Na2 HPO4, 11.9 mM NaHCO3, 2.9 mM KCl, 5.5 mM glucose, 10 mM HEPES, at a pH of 7.35 and 0.35% human serum albumin (HSA). These washed platelets are activated by addition of human α-thrombin at a final concentration of 2 units/ml, followed by thrombin inhibitor I-2581 at a final concentration of 40 μM. To the activated platelets is added paraformaldehyde to a final concentration of 0.50% and this incubated at room temperature for 30 minutes. The fixed activated platelets are then collected by centrifugation at 650×g for 15 minutes. The platelet pellets are washed four times with the above Tyrode's-0.35% HSA buffer and resuspended to 2×10^8 cells/ml in the same buffer.
Platelet Aggregation Assay
The fixed activated platelets are incubated with a selected dose of the compound to be tested for platelet aggregation inhibition for one minute and aggregation initiated by addition of human fibrinogen to a final concentration of 250 μg/ml. A platelet aggregation profiler Model PAP-4 is used to record the platelet aggregation. The extent of inhibition of aggregation is expressed as the percentage of the rate of aggregation observed in the absence of inhibitor. IC50, i.e., the amount of inhibitor required to reduce the aggregation rate by 50%, is then calculated for each compound (see, for example, Plow, E. F., et al., Proc. Natl. Acad. Sci., USA 82, 8057-8061 (1985)).

| IC50 [nM] | Structure (SMILES) |
| --- | --- |
| 120 | N=C(N)NCCCCCCCC(=O)NC(CC(=O)O)NC(=O)CCCCCCCNC(=N)N (stereo not shown) [Example 1, N,N'-bis-(8-guanidino)octanoyl-3,3-diaminopropionic acid] |
| 1300 | N=C(N)NCCCCCCCCC(=O)N[C@H](CC(=O)O)NC(=O)CCCCCCCNC(=N)N [Example 2, (3S)-N-(8-guanidino)octanoyl-N'-(9-guanidino)nonanoyl-3,3-diaminopropionic acid] |
| 2800 | N=C(N)NCCCCCCC(=O)NC(CC(=O)O)NC(=O)CCCCCCNC(=N)N (stereo not shown) [Example 4, N,N'-bis-(7-guanidino)heptanoyl-3,3-diaminopropionic acid] |
| 140 | N=C(N)NCCCCCCCCC(=O)NC(CC(=O)O)NC(=O)CCCCCCCCNC(=N)N (stereo not shown) [Example 5, N,N'-bis-(9-guanidino)nonanoyl-3,3-diaminopropionic acid] |
| 2800 | N=C(N)NCCCCCCCCC(=O)N[C@H](CC(=O)O)NC(=O)CCCCCCNC(=N)N [Example 6, (3S)-N-(7-guanidino)heptanoyl-N'-(9-guanidino)nonanoyl-3,3-diaminopropionicacid] |
| 740 | N=C(N)NCCCCCCCC(=O)N[C@H](CC(=O)O)NC(=O)CCCCCCNC(=N)N [Example 7, (3S)-N-(7-guanidino)heptanoyl-N'-(8-guanidino)octanoyl-3,3-diaminopropionicacid] |
| 300 | N=C(N)NCCCCCCCCC(=O)N[C@@H](CC(=O)O)NC(=O)CCCCCCCNC(=N)N [Example 8, (3R)-N-(8-guanidino)octanoyl-N'-(9-guanidino)nonanoyl-3,3-diaminopropionic acid] |
| 9800 | N=C(N)NCCCCCCCC(=O)N[C@H](CC(=O)O)NC(=O)[C@@H](N)CCCNC(=N)N [Example 9, (3S)-N-L-arginyl-N'-(8-guanidino)octanoyl-3,3-diaminopropionic acid] |
| 120 | N=C(N)NCCCCCCCCC(=O)N[C@@H](CC(=O)O)NC(=O)CCCCCCNC(=N)N [Example 10, (3R)-N-(7-guanidino)heptanoyl-N'-(9-guanidino)nonanoyl-3,3-diaminopropionicacid] |
| 320 | N=C(N)NCCCCCCCC(=O)N[C@@H](CC(=O)O)NC(=O)CCCCCCNC(=N)N [Example 11, (3R)-N-(7-guanidino)heptanoyl-N'-(8-guanidino)octanoyl-3,3-diaminopropionicacid] |
| 2000 | CC(C)CC(=O)N[C@H](CC(=O)O)NC(=O)CCCCCCCNC(=N)N [Example 12, (3R)-N-(8-guanidino)octanoyl-N'-(3-methyl)butanoyl-3,3-diaminopropionic acid] |
| 25000 | CC[C@@H](C)[C@@H](NC(=O)CCCCNC(=N)N)C(=O)N[C@H](CC(=O)O)NC(=O)CCCCCCCCNC(=N)N [Example 15, (3R)-N-[N-[(5-guanidino)pentanoyl]-D-isoleucyl]-N'-(9-guanidino)nonanoyl-3,3-diaminopropionic acid] |
| 17500 | CC[C@H](C)[C@H](NC(=O)CCCCNC(=N)N)C(=O)N[C@H](CC(=O)O)NC(=O)CCCCCCCCNC(=N)N [Example 17] |
| > 100000 | N=C(N)NCCCCCCCC(=O)NC(CCC(=O)O)NC(=O)CCCCCCCNC(=N)N (stereo not shown) [Example 18, N,N'-bis-(8-guanidino)octanoyl-4,4-diaminobutanoic acid] |

Test system: thrombin-stimulated platelets
Test: Fibrinogen-Binding Assay (inhibition of 125I-fibrinogen binding to platelets)
Details: 125I-labeled fibrinogen 0.176 μmol/liter (60 μg/ml); 22°-25° C., 30 minutes; read-out: Inhibition of 125I-Fibrinogen Binding to Platelet (IC50)
Text: as §1, §2
Platelets are washed free of plasma constituents by the albumin density-gradient technique of Walsh, P. N., et al., Br. J. Haematol. 281-296 (1977), as modified by Trapani-Lombardo, V., et al., J. Clin Invest. 76, 1950-1958 (1985). […] The platelet pellet is then separated from the rest of the mixture to determine platelet-bound radioactivity. Nonspecific binding is measured in mixtures containing an excess of unlabeled ligand. When binding curves are analyzed by Scatchard analysis, nonspecific binding is derived as a fitted parameter from the binding isotherm by means of a computerized program (Munson, P. J., Methods Enzymol. 92, 542-576 (1983)). […]

| IC50 [nM] | Structure (SMILES) |
| --- | --- |
| 70 | N=C(N)NCCCCCCCC(=O)NC(CC(=O)O)NC(=O)CCCCCCCNC(=N)N (stereo not shown) [Example 1, N,N'-bis-(8-guanidino)octanoyl-3,3-diaminopropionic acid] |
| 1200 | N=C(N)NCCCCCCCC(=O)N[C@H](CC(=O)O)NC(=O)[C@@H](N)CCCNC(=N)N [Example 9, (3S)-N-L-arginyl-N'-(8-guanidino)octanoyl-3,3-diaminopropionic acid] |
